According to patent US20260078130A1, “NAMPT MODULATORS, PREPARATIONS, AND USES THEREOF” (SIRONAX LTD., priority 2022, published 2026):
Like-named read-outs stand apart in the source and are kept apart here.

Legend:
[1] = test system: endogenous NAMPT in U2OS cells; assay: Cellular NAD+ modulation assay (NAD/NADH-Glo, U2OS cells); format: cell-based; conditions: Homo sapiens; for maximal fold induction: read-out: Cellular Emax
Outline: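 Endogenous NAMPT stimulation in U2OS cells treated with compound dilution series for 24 h at 37 °C. Cells lysed with DTAB base, acid-treated 15 min at 60 °C, neutralized, NAD+ read by NAD/NADH-Glo luminescence after 40 min at room temperature. EC50 and Emax (fold over DMSO) derived.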

[2] = molecular target: T1, human enzyme NAMPT (full length) (Homo sapiens, UniProt P43490); assay: NMN fluorescence biochemical assay (stimulation of NMN synthesis by NAMPT); conditions: for EC50: concentration giving half-maximal activation, read-out: Enzymatic EC50; for Enzymatic Emax: fold change of maximal activation compared to DMSO
T1 construct: human enzyme NAMPT (full length)
Outline: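 Full-length human NAMPT (100 nM) was preincubated 15 min at 37 °C with compound in 50 mM Tris-HCl pH 7.5, 10 mM MgCl2, 2 mM DTT, then reacted 1 h at 37 °C with 50 μM NAM, 100 μM PRPP, 4 mM ATP (stated solution concentrations). NMN was derivatised with acetophenone/KOH then formic acid and read at Ex/Em 382/445 nm; EC50 and Emax (fold over DMSO) reported.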

[3] = 24 hours incubation, cellular NAD+
[4] = NMN fluorescence assay, purified human NAMPT 100 nM
[5] = 24 hours incubation with compound
[6] = NMN synthesis by purified human NAMPT (100 nM)

T1 sequence (P43490 whole entry): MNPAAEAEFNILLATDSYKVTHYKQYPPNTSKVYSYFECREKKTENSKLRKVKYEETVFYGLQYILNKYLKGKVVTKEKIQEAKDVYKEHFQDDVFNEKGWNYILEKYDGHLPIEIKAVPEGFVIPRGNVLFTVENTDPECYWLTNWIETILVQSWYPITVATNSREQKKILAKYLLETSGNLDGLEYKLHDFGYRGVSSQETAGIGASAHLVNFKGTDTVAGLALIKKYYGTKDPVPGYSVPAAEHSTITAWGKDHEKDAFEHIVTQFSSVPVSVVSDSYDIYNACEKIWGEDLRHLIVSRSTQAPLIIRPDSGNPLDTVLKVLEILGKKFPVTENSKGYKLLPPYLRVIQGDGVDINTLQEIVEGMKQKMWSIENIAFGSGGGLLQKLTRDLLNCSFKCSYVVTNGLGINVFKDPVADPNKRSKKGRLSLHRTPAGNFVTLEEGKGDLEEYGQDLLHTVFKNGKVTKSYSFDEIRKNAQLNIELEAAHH

| EC50 [1, 3] | EC50 [2, 4] | Enzymatic Emax [2] | EC50 [1, 5] | EC50 [2, 6] | Structure (SMILES) | maximal fold induction [1, 3] | maximal fold induction [1, 5] |
| --- | --- | --- | --- | --- | --- | --- | --- |
| < 500 nM | < 500 nM | A (A>3) | – | – | Cn1ncc(Cl)c1CC1c2cc(N3CCOCC3)ccc2C(=O)N1Cc1ccc2[nH]nnc2c1 (stereo not drawn) [Compound 324, 2-((1H-benzo[d][1,2,3]triazol-5-yl)methyl)-3-((4-chloro-1-methyl-1H-pyrazol-5-yl)methyl)-5-morpholinoisoindolin-1-one] | > 1.5 | – |
| < 500 nM | < 500 nM | B (3≥B>2) | – | – | Cc1nn(C)c(CC2c3ccccc3C(=O)N2CC2CC3(CNC(=O)O3)C2)c1Cl (stereo not drawn) [Compound 527, 2-((1-((4-chloro-1,3-dimethyl-1H-pyrazol-5-yl)methyl)-3-oxoisoindolin-2-yl)methyl)-5-oxa-7-azaspiro[3.4]octan-6-one] | > 1.5 | – |
| < 500 nM | < 500 nM | A (A>3) | – | – | Cn1ncc(Cl)c1CC1c2cc(Br)ccc2C(=O)N1Cc1ccc2[nH]nnc2c1 (stereo not drawn) [Compound 326, 2-((1H-benzo[d][1,2,3]triazol-5-yl)methyl)-5-bromo-3-((4-chloro-1-methyl-1H-pyrazol-5-yl)methyl)isoindolin-1-one] | > 1.5 | – |
| < 500 nM | < 500 nM | B (3≥B>2) | – | – | Cc1c(CC2c3ccccc3C(=O)N2Cc2ccc3[nH]nnc3c2)c(C#N)nn1C (stereo not drawn) [Compound 393, 4-((2-((1H-benzo[d][1,2,3]triazol-5-yl)methyl)-3-oxoisoindolin-1-yl)methyl)-1,5-dimethyl-1H-pyrazole-3-carbonitrile] | > 1.5 | – |
| – | – | A (A>3) | < 500 nM | 500 to 5000 nM | O=C1c2ccccc2C(Cc2ncccc2F)N1Cc1ccc2[nH]c(=O)oc2c1 (stereo not drawn) [Compound 214, 6-((1-((3-fluoropyridin-2-yl)methyl)-3-oxoisoindolin-2-yl)methyl)benzo[d]oxazol-2(3H)-one] | – | > 1.5 |
| < 500 nM | 500 to 5000 nM | B (3≥B>2) | – | – | Cn1ncc(Cl)c1CC1c2cc(F)ccc2C(=O)N1CC1CC2(CNC(=O)O2)C1 (stereo not drawn) [Compound 486, 2-((3-((4-chloro-1-methyl-1H-pyrazol-5-yl)methyl)-5-fluoro-1-oxoisoindolin-2-yl)methyl)-5-oxa-7-azaspiro[3.4]octan-6-one] | > 1.5 | – |
| – | – | C (2≥C) | 500 to 5000 nM | 500 to 5000 nM | Cc1cccc2c1C(=O)N(Cc1ccc(O)cc1)C2=O [Compound 295, 2-(4-hydroxybenzyl)-4-methylisoindoline-1,3-dione] | – | 1.2 to 1.5 |
| – | – | B (3≥B>2) | 5000 to 50000 nM | ≥ 5000 nM | O=C1CCc2ccccc2N1Cc1ccc(O)cc1 [Compound 3, 1-(4-hydroxybenzyl)-3,4-dihydroquinolin-2(1H)-one] | – | 1.2 to 1.5 |
| < 500 nM | < 500 nM | B (3≥B>2) | – | – | Cn1ccc(Cl)c(CC2c3ccccc3C(=O)N2CC2CC3(CNC(=O)O3)C2)c1=O (stereo not drawn) [Compound 480, 2-((1-((4-chloro-1-methyl-2-oxo-1,2-dihydropyridin-3-yl)methyl)-3-oxoisoindolin-2-yl)methyl)-5-oxa-7-azaspiro[3.4]octan-6-one] | > 1.5 | – |
| < 500 nM | 500 to 5000 nM | B (3≥B>2) | – | – | Cn1ncc(Cl)c1CC1c2cc(OC(F)F)ccc2C(=O)N1CC1CC2(CNC(=O)O2)C1 (stereo not drawn) [Compound 541, 2-((3-((4-chloro-1-methyl-1H-pyrazol-5-yl)methyl)-5-(difluoromethoxy)-1-oxoisoindolin-2-yl)methyl)-5-oxa-7-azaspiro[3.4]octan-6-one] | > 1.5 | – |
| – | – | A (A>3) | 500 to 5000 nM | ≥ 5000 nM | CC1c2cc(CN3CCCC3)ccc2C(=O)N1Cc1ccc2[nH]c(=O)oc2c1 (stereo not drawn) [Compound 96, 6-((3-methyl-1-oxo-5-(pyrrolidin-1-ylmethyl)isoindolin-2-yl)methyl)benzo[d]oxazol-2(3H)-one] | – | > 1.5 |
| 500 to 5000 nM | 500 to 5000 nM | B (3≥B>2) | – | – | Cc1ccn(C)c(=O)c1CC1c2ccccc2C(=O)N1CC1CC2(CNC(=O)O2)C1 (stereo not drawn) [Compound 481, 2-((1-((1,4-dimethyl-2-oxo-1,2-dihydropyridin-3-yl)methyl)-3-oxoisoindolin-2-yl)methyl)-5-oxa-7-azaspiro[3.4]octan-6-one] | > 1.5 | – |
